pIC50: −log10 of the molar value. Counter-ions that a name gives are not always drawn.
Target: T1, recombinant full-length USP7 (Homo sapiens, UniProt Q93009)
T1 construct: A 25 μl reaction volume containing recombinant full-length USP7 (62 pM)
Assay: USP7-mediated ubiquitin-rhodamine cleavage assay
Format: biochemical
Conditions: recombinant full-length USP7 62 pM; ubiquitin-rhodamine 100 nM; 30-minute incubation with compound, 1 hour reaction at room temperature; read-out: Potency: USP7 IC50
Procedure, shortened: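 Full-length recombinant USP7 (62 pM) in 20 mM HEPES pH 7.3, 150 mM NaCl, 1 mM TCEP, 125 μg/ml BSA, 1% DMSO, preincubated with compound 30 min at RT. Ubiquitin-rhodamine (100 nM final) cleaved 1 h at RT in the dark, stopped with acetic acid; rhodamine fluorescence read, IC50 by 4-parameter nonlinear fit.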

T1 sequence (Q93009 whole entry): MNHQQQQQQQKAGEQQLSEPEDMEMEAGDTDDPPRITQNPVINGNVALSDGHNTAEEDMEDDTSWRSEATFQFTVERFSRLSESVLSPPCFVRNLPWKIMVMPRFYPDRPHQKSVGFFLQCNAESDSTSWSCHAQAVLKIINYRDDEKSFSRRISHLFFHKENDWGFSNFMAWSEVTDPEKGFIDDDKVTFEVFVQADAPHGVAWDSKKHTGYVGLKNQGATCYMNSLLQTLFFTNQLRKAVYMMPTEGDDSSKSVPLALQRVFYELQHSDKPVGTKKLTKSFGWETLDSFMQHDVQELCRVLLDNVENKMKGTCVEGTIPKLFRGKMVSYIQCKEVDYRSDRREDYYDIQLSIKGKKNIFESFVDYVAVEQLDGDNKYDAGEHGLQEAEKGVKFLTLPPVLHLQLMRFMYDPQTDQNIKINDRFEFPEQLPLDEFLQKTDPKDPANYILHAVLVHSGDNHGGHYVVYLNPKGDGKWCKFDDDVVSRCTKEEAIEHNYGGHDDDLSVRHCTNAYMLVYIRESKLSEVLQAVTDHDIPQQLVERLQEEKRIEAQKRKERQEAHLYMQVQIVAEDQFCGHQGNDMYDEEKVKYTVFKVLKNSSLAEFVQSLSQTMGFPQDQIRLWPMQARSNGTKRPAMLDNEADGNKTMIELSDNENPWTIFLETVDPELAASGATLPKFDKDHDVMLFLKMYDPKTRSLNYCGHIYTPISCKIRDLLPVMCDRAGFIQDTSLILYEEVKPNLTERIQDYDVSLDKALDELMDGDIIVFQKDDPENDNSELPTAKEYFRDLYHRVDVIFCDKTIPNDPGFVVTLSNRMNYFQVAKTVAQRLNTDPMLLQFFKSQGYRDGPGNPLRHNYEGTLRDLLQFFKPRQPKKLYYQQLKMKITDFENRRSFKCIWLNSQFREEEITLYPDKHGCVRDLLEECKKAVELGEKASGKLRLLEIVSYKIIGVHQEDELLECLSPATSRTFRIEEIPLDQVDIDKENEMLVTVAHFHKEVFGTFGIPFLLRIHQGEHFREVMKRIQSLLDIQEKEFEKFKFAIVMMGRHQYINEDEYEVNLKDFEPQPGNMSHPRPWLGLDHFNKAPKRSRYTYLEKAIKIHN

pIC50	Molecule
> 6.00	Cc1cc(Cl)cc(-c2ccnc3cc(CN4C(=O)CCC4=O)sc23)c1O[C@H]1CCNC[C@H]1C [Example 229, 1-((7-(5-Chloro-3-methyl-2-(((3R,4S)-3-methylpiperidin-4-yl)oxy)phenyl)thieno[3,2-b]pyridin-2-yl)methyl)pyrrolidine-2,5-dione]
> 6.00	Cc1cc(Cl)cc(-c2ccnc3cc(CN4C(=O)C5C(C4=O)C5(C)C)sc23)c1O[C@@H]1C[C@@H]2C[C@H]1N(C)C2 (stereo partly drawn) [Example 333, 3-[[7-[5-chloro-3-methyl-2-[[(1S,4R,5R)-3-methyl-3-azabicyclo[2.2.1]heptan-5-yl]oxy]phenyl]thieno[3,2-b]pyridin-2-yl]methyl]-6,6-dimethyl-3-azabicyclo[3.1.0]hexane-2,4-dione]
> 6.00	Cc1cc(Cl)cc(-c2ccnc3cc(CN4C(=O)C5C(C4=O)C5(C)C)sc23)c1O[C@@H]1C[C@H]2CN[C@@H]1C2 (stereo partly drawn) [Example 331, 3-[[7-[2-[[(1S,4R,5R)-3-azabicyclo[2.2.1]heptan-5-yl]oxy]-5-chloro-3-methyl-phenyl]thieno[3,2-b]pyridin-2-yl]methyl]-6,6-dimethyl-3-azabicyclo[3.1.0]hexane-2,4-dione]
> 6.00	Cc1cc(Cl)cc(-c2ccnc3cc(CN4C(=O)C5C(C4=O)C5(C)C)sc23)c1OC1CN(C)CC1(C)F (stereo not shown) [Example 375, 3-[[7-[5-chloro-2-(4-fluoro-1,4-dimethyl-pyrrolidin-3-yl)oxy-3-methyl-phenyl]thieno[3,2-b]pyridin-2-yl]methyl]-6,6-dimethyl-3-azabicyclo[3.1.0]hexane-2,4-dione dihydrochloride]
> 6.00	Cc1cc(Cl)cc(-c2ccnc3cc(CN4C(=O)C5C(C4=O)C5(C)C)sc23)c1O[C@@H]1CNC[C@@H]1C (stereo partly drawn) [Example 328, 3-[[7-[5-chloro-3-methyl-2-[(3S,4S)-4-methylpyrrolidin-3-yl]oxy-phenyl]thieno[3,2-b]pyridin-2-yl]methyl]-6,6-dimethyl-3-azabicyclo[3.1.0]hexane-2,4-dione]
5.00 to 6.00	Cc1cc(Cl)cc(-c2ccnc3cc(CNS(C)(=O)=O)sc23)c1O[C@@H]1CNC[C@@H]1F [Example 107, N-((7-(5-Chloro-2-(((3R,4S)-4-fluoropyrrolidin-3-yl)oxy)-3-methylphenyl)thieno[3,2-b]pyridin-2-yl)methyl)methanesulfonamide]
> 6.00	Cc1cc(Cl)cc(-c2ncnc3cc(CN4C(=O)C5C(C4=O)C5(C)C)sc23)c1OC1CNCC1(C)C (stereo not shown) [Example 371, 3-[[4-[5-chloro-2-(4,4-dimethylpyrrolidin-3-yl)oxy-3-methyl-phenyl]thieno[3,2-d]pyrimidin-6-yl]methyl]-6,6-dimethyl-3-azabicyclo[3.1.0]hexane-2,4-dione]
> 6.00	Cc1cc(C#N)cc(-c2ccnc3cc(CN4C(=O)CCC4=O)sc23)c1OCC1(C)CNC1 [Example 46, 3-(2-((2,5-Dioxopyrrolidin-1-yl)methyl)thieno[3,2-b]pyridin-7-yl)-5-methyl-4-((3-methylazetidin-3-yl)methoxy)benzonitrile]
> 6.00	Cc1cc(Cl)cc(-c2ncnc3cc(CN4C(=O)CC(C)C4=O)sc23)c1O[C@@H]1CNC[C@@H]1F (stereo partly drawn) [Example 378, 1-[[4-[5-chloro-2-[(3R,4S)-4-fluoropyrrolidin-3-yl]oxy-3-methyl-phenyl]thieno[3,2-d]pyrimidin-6-yl]methyl]-3-methyl-pyrrolidine-2,5-dione; 2,2,2-trifluoroacetic acid]

Same assay, conditions: recombinant full-length USP7 62 pM; ubiquitin-rhodamine 100 nM; 30-minute pre-incubation, 1 hour reaction at room temperature; read-out: Potency (USP7 IC50)

pIC50	Molecule
> 6.00	CCN1CC[C@@H](Oc2c(C)cc(Cl)cc2-c2ccnc3cc(Cn4c(=O)ccn(C)c4=O)sc23)[C@@H](C)C1 [Example 455, 3-[[7-[5-chloro-2-[[(3S,4R)-1-ethyl-3-methyl-4-piperidyl]oxy]-3-methyl-phenyl]thieno[3,2-b]pyridin-2-yl]methyl]-1-methyl-pyrimidine-2,4-dione]
> 6.00	Cc1cc(Cl)cc(-c2ncnc3cc(Cn4c(=O)ccn(CC(F)(F)F)c4=O)sc23)c1O[C@@H]1CNC[C@@H]1F [Example 525, 3-[[4-[5-chloro-2-[(3R,4S)-4-fluoropyrrolidin-3-yl]oxy-3-methyl-phenyl]thieno[3,2-d]pyrimidin-6-yl]methyl]-1-(2,2,2-trifluoroethyl)pyrimidine-2,4-dione]
> 6.00	Cc1cc(Cl)cc(-c2ccnc3cc(Cn4c(=O)ccn(C)c4=O)sc23)c1O[C@H]1CCCN(CCO)CC1 [Example 494, 3-[[7-[5-chloro-2-[(4S)-1-(2-hydroxyethyl)azepan-4-yl]oxy-3-methyl-phenyl]thieno[3,2-b]pyridin-2-yl]methyl]-1-methyl-pyrimidine-2,4-dione]
> 6.00	Cc1cc(Cl)cc(-c2ccnc3cc(Cn4c(=O)ccn(CC(F)(F)F)c4=O)sc23)c1O[C@@H]1CCCN[C@H]1C [Example 622, 3-[[7-[5-chloro-3-methyl-2-[[(2S,3R)-2-methyl-3-piperidyl]oxy]phenyl]thieno[3,2-b]pyridin-2-yl]methyl]-1-(2,2,2-trifluoroethyl)pyrimidine-2,4-dione; 2,2,2-trifluoroacetic acid]
> 6.00	Cc1cc(Cl)cc(-c2ccnc3cc(Cn4c(=O)ccn(CC(F)(F)F)c4=O)sc23)c1O[C@H]1CCCNCC1 [Example 656, 3-[[7-[2-[(4S)-azepan-4-yl]oxy-5-chloro-3-methyl-phenyl]thieno[3,2-b]pyridin-2-yl]methyl]-1-(2,2,2-trifluoroethyl)pyrimidine-2,4-dione; 2,2,2-trifluoroacetic acid]
> 6.00	Cc1cc(Cl)cc(-c2ccnc3cc(Cn4c(=O)ccn(C)c4=O)sc23)c1O[C@@H]1CCN(C)C[C@@H]1C [Example 457, 3-[[7-[5-chloro-2-[[(3S,4R)-1,3-dimethyl-4-piperidyl]oxy]-3-methyl-phenyl]thieno[3,2-b]pyridin-2-yl]methyl]-1-methyl-pyrimidine-2,4-dione]
> 6.00	Cc1cc(Cl)cc(-c2ncnc3cc(Cn4c(=O)ccn(CC(F)(F)F)c4=O)sc23)c1O[C@@H]1CCN(C)C[C@@H]1C [Example 528, 3-[[4-[5-chloro-2-[[(3S,4R)-1,3-dimethyl-4-piperidyl]oxy]-3-methyl-phenyl]thieno[3,2-d]pyrimidin-6-yl]methyl]-1-(2,2,2-trifluoroethyl)pyrimidine-2,4-dione]
> 6.00	Cc1cc(C#N)cc(-c2ccnc3cc(Cn4c(=O)ccn(C)c4=O)sc23)c1OC1CCNCC1 [Example 454, 3-methyl-5-[2-[(3-methyl-2,6-dioxo-pyrimidin-1-yl)methyl]thieno[3,2-b]pyridin-7-yl]-4-(4-piperidyloxy)benzonitrile]

Molecule	pIC50
3-[[7-[5-chloro-2-[2-(3-hydroxyazetidin-1-yl)ethoxy]-3-methyl-phenyl]thieno[3,2- [Example 667]	> 6.00
Cc1cc(Cl)cc(-c2ccnc3cc(Cn4c(=O)ccn(C)c4=O)sc23)c1O[C@H]1CCN(C)C(C)(C)C1 [Example 490]	> 6.00

Source: patent US10722514B2 (FLX Bio, Inc., priority 2017, dated 2020)
